# In patent US6545045B1, “Prostaglandin E agonists for treatment of glaucoma” (Alcon Manufacturing, Ltd., priority 1998, dated 2003):
# What was measured:
# EP2 receptors = biological target: T1, EP2 receptors (Homo sapiens, UniProt P43116); test: cAMP production (radioimmunoassay) via EP2 receptors in immortalized human non-pigmented ciliary epithelial cells; assay type: cell-based
# T1 construct: Immortalized human non-pigmented ciliary epithelial cells (containing EP2 receptors); endogenous in cells; host or cells: immortalized human non-pigmented ciliary epithelial cells
# T1 sequence (P43116 whole entry): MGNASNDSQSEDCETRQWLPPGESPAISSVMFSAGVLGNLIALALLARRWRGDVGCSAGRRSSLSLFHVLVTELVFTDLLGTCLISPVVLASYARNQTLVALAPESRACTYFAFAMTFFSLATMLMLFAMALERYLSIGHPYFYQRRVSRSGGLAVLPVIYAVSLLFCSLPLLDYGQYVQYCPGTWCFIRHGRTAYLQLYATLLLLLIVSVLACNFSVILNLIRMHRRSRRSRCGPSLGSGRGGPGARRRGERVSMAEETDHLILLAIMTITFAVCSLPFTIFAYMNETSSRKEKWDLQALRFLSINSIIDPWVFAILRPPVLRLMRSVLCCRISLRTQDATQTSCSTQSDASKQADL
# Description: (§1) Immortalized human non-pigmented ciliary epithelial cells (containing EP2 receptors) and Chinese hamster ovary cells (containing EP4 receptors, Milne et al. Human moncytes and cultured Chinese hamster ovary cells express EP4 receptors positively coupled to adenylate cyclase, Br. J. Pharmacology, 113 (supplement):8 (1994)) were stimulated with various prostaglandins for 15-60 min at 23° C. The cAMP produced by receptor activation was determined by a specific radioimmunoassay as previously described (Sharif et al., Pharmacological analysis of mast cell mediator and neurotransmitter receptors coupled to adenylate cyclase and phospholipase C on immunocytochemically-defined human conjunctival epithelial cells, J. Ocular Pharmacology & Therapeutics, 13, 321-336 (1997); Crider et al. Prostaglandin-stimulated adenylyl cyclase activity via a pharmacologically-defined EP2 receptor in human non-pigmented epithelial cells, J. Ocular Pharmacology & Therapeutics 14:293-304 (1998); Crider et al. Use of a semi-automated, robotic radioimmunoassay to measure cAMP generated by activation of DP-, EP2- and IP-prostaglandin receptors in human ocular and other cell-types, Prostaglandins, Leukotrienes & Fatty Acids 59:77-82 (1998), Milne et al. Human moncytes and cultured Chinese hamster ovary cells express EP4 receptors positively coupled to adenylate cyclase, Br. J. Pharmacology, 113 (supplement):8, (1994)).
# EP4 receptors = biological target: T2, EP4 receptors (Cricetulus griseus, UniProt A0A061ILF4); test: cAMP production (radioimmunoassay) via EP4 receptors in Chinese hamster ovary cells; assay type: cell-based; conditions: stimulated 15-60 min at 23° C; for EC50: read-out: Potency (EC50, nM) at EP4 Receptors in Chinese Hamster Ovary Cells
# T2 construct: Chinese hamster ovary cells (containing EP4 receptors); endogenous in cells; host or cells: Chinese hamster ovary (CHO) cells
# T2 sequence (A0A061ILF4 1-488): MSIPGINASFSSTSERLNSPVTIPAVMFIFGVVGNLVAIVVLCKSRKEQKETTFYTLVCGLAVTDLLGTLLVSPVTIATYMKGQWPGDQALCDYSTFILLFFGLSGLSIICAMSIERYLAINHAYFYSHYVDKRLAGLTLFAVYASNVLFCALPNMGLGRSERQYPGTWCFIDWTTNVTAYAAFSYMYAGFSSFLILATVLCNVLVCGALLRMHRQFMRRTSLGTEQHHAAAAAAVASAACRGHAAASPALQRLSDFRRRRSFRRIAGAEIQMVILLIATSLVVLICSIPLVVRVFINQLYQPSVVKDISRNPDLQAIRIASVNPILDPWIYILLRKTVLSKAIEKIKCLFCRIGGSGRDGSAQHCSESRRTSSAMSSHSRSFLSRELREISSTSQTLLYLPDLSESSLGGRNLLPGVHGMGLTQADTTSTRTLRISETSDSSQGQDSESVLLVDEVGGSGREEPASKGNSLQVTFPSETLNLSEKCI
# Description: as §1
# [1] = cAMP production, stimulated 15-60 min at 23° C
structure (smiles),measurement,setting,value
O=C(O)CCC/C=C\C[C@@H]1[C@@H](/C=C/[C@@H](O)COc2cccc(C(F)(F)F)c2)[C@H](O)C[C@@H]1O (racemic) [Fluprostenol],"Potency (EC50, nM) at EP2 Receptors in Immortalized Human Non-pigmented Ciliary Epithelial Cells",EP2 receptors; [1],Inactive
same,"Potency (EC50, nM) at EP2 Receptors in Immortalized Human Non-pigmented Ciliary Epithelial Cells","EP2 receptors; cAMP production, stimulated 15-60 min at 23° C, listed as fluprostenol",inactive
same,"Potency (EC50, nM) at EP4 Receptors in Chinese Hamster Ovary Cells",EP4 receptors,Inactive
same,"Potency (EC50, nM) at EP4 Receptors in Chinese Hamster Ovary Cells",EP4 receptors; listed as fluprostenol,inactive
"CCCCC(C)(C)[C@H](O)/C=C/[C@H]1CCC(=O)[C@@H]1C/C=C\CCCC(=O)O [11-deoxy-16,16-dimethyl-PGE2, 11-deoxy-16,16-dimethyl PGE2]",efficacy at EP4 Receptors in Chinese Hamster Ovary Cells,EP4 receptors,99%
CCCCC[C@H](O)/C=C/[C@H]1CCC(=O)[C@@H]1CCCCCCC(=O)O [11-deoxy-PGE1],EC50,"EP2 receptors; cAMP production, stimulated 15-60 min at 23° C, read-out: Potency (EC50, nM) at EP2 Receptors in Immortalized Human Non-pigmented Ciliary Epithelial Cells",500 nM
same,efficacy at EP4 Receptors in Chinese Hamster Ovary Cells,EP4 receptors,86%
same,EC50,EP4 receptors,38 nM
"CCCCC(C)(C)[C@H](O)/C=C/[C@H]1[C@H](O)CC(=O)[C@@H]1C/C=C\CCCC(=O)O [16,16-dimethyl-PGE2, 16,16-dimethyl PGE2]",efficacy at EP4 Receptors in Chinese Hamster Ovary Cells,EP4 receptors,100%
CCCC1([C@H](O)C/C=C/[C@H]2[C@H](O)CC(=O)[C@@H]2CCCCCCC(=O)OC)CCC1 [Butaprost],selectivity between EP2 and EP4 receptors (relative agonist potency),"EP2 receptors; EP2 versus EP4, from EC50 values of Table 1",more EP2-selective
O=C(O)CCC/C=C\CC1C(O)CC(O)C1/C=C/C(O)COc1cccc(Cl)c1 (stereo not shown) [Cloprostenol],"Potency (EC50, nM) at EP2 Receptors in Immortalized Human Non-pigmented Ciliary Epithelial Cells",EP2 receptors; [1],Inactive
same,"Potency (EC50, nM) at EP2 Receptors in Immortalized Human Non-pigmented Ciliary Epithelial Cells","EP2 receptors; cAMP production, stimulated 15-60 min at 23° C, listed as cloprostenol",inactive
same,"Potency (EC50, nM) at EP4 Receptors in Chinese Hamster Ovary Cells",EP4 receptors,Inactive
same,"Potency (EC50, nM) at EP4 Receptors in Chinese Hamster Ovary Cells",EP4 receptors; listed as cloprostenol,inactive
CCCCC[C@H](O)/C=C/[C@H]1[C@H](O)CC(=O)[C@@H]1C/C=C\CCCC(=O)O [PGE2],efficacy at EP4 Receptors in Chinese Hamster Ovary Cells,EP4 receptors,100%
same,EC50,EP4 receptors,35 nM
